≈ marks a conversion by molar mass, not a printed value. Read-outs that look alike come from different tables or passages of the source.
Key:
[1] = test system: Dorea longicatena; experiment: MIC determination, stool Firmicute isolates; assay type: cell-based; details: N=1
[2] = test system: Clostridioides difficile; experiment: MIC determination, C. difficile strains; assay type: cell-based
Source text: Fecal samples homogenized in reduced PBS (0.1 g stool/ml PBS) and serially diluted and plated directly onto YCFA7 agar supplemented with 0.002 g/ml each of glucose, maltose and cellobiose in large (13.5 cm diameter) petri dishes. Isolated colonies were identified by PCR amplification of the full-length 16S rRNA gene (using 7F (5′-[…]-3′) forward primer and 1510R (5′-[…]-3′) reverse primer followed by Sanger sequencing. Full-length 16S rRNA gene sequence reads were aligned using CLC Genomics (Qiagen) using the Ribosomal Database Project (RDP) as reference to classify reads to Operational Taxonomic Units (OTUs). The full-length 16S rRNA gene sequence of each species-level OTU was compared to the Ribosomal Database Project (RDP) reference database to assign taxonomic designations to the genus level and a BLAST search performed to identify any candidate novel species.
Strains plated onto blood agar (Hardy Diagnostics) with a 24-hour incubation at 37° C. in an anaerobic environment (Coy vinyl anaerobic chamber). After incubation, 3-5 well-isolated colonies were suspended into 5 mL of BHI broth (Criterion Media). The cultures were incubated in an anaerobic chamber for 24 hours to achieve a 0.5 McFarland Standard. Brucella agar with 5% hemin (5 ug/mL) (Sigma), vitamin K (10 ug/mL), and defibrinated sheep blood (Northeast Lab Services). The supplemented brucella agar was then utilized for two-fold serial dilution to create plates with IBZ concentration of 0.5 to 16 μg/mL plates. Plates were allowed to dry in a sterile location. After drying, the plates were covered with foil to prevent any photo-damage to the hemin and placed in the anaerobic chamber for 1 hour to reduce the media. The broth culture was then spotted onto the plates and covered with foil. Plates were allowed to dry completely before inverting them for incubation for 48 hours. Plates were analyzed and MIC recorded.

[3] = test system: Paeniclostridium sordellii; experiment: MIC determination, stool Firmicute isolates; assay type: cell-based; details: Paraclostridium sordellii
[4] = test system: C. difficile CD 630 motility; experiment: Phenotypic motility assay; details: sub-inhibitory concentrations in semi-solid BHI agar
[5] = test system: C. difficile clinical isolates; details: Clostridioides difficile, 24 h, agar dilution

## O=c1[nH]c(NCc2ccc(Cl)c(Cl)c2)nc2ncn(CCN3CCOCC3)c12 [Ibezapolstat, 2-((3,4-dichlorobenzyl)amino)-7-(2-morpholinoethyl)-1,7-dihydro-6H-purin-6-one]
[1]
  MIC50: 3.12 µg/mL (≈ 7.38 µM)
[2]; Clostridioides difficile, N=6
  MIC50: 0.5 µg/mL (≈ 1.18 µM)
[2]; Clostridioides difficile, N=6, read-out: MIC Max
  MIC: 1 µg/mL (≈ 2.36 µM)
[2]; Clostridioides difficile, N=6, read-out: MIC Min
  MIC: 0.25 µg/mL (≈ 0.591 µM)
[2]; Clostridioides difficile, strains of C. difficile, highly active
  MIC: ≤ 2 µg/mL
[2]; strains of C. difficile, highly active
  MIC: < 2 µg/mL
[3]; read-out: MIC Max
  MIC: 12.5 µg/mL (≈ 29.5 µM)
[3]; Paeniclostridium sordellii, N=4
  MIC50: 1.5 µg/mL (≈ 3.54 µM)
[3]; Paeniclostridium sordellii, N=4, read-out: MIC Min
  MIC: 0.75 µg/mL (≈ 1.77 µM)
[4]
  motility of CD 630: attenuated motility
[4]; listed as IBZ
  motility of CD 630: less motile
[5]; C. difficile clinical isolate MT 4802
  MIC: 4 µg/mL (≈ 9.45 µM)
[5]; C. difficile clinical isolate MT 5071
  MIC: 8 µg/mL (≈ 18.9 µM)
[5]; C. difficile clinical isolate MT 5342
  MIC: 4 µg/mL (≈ 9.45 µM)
[5]; C. difficile clinical isolate MT 5364
  MIC: 4 µg/mL (≈ 9.45 µM)
[5]; C. difficile clinical isolate MT 5382
  MIC: 8 µg/mL (≈ 18.9 µM)
[5]; C. difficile clinical isolate MT 5426
  MIC: 8 µg/mL (≈ 18.9 µM)
[5]; C. difficile clinical isolate MT 5493
  MIC: 4 µg/mL (≈ 9.45 µM)
[5]; C. difficile clinical isolate MT 5515
  MIC: 8 µg/mL (≈ 18.9 µM)
[5]; C. difficile clinical isolate MT 5529
  MIC: 4 µg/mL (≈ 9.45 µM)
[5]; C. difficile clinical isolate MT 5536
  MIC: 8 µg/mL (≈ 18.9 µM)
[5]; C. difficile clinical isolate SH 1132
  MIC: 8 µg/mL (≈ 18.9 µM)

Reference: patent US20260144796A1, “Compounds and Methods for Improving Health” (Acurx Pharmaceuticals, Inc., priority 2022, published 2026)
